The results in this text go back to the supplement of paper PMC10307832.

Holding throughout (assay): relative viability (nuclei count vs DMSO), 5 days (fraction); higher = more cells survive
Compound in the assay “Adavosertib + Linsitinib”: C=CCn1c(=O)c2cnc(Nc3ccc(N4CCN(C)CC4)cc3)nc2n1-c1cccc(C(C)(C)O)n1 [Adavosertib] + C[C@]1(O)C[C@@H](c2nc(-c3ccc4ccc(-c5ccccc5)nc4c3)c3c(N)nccn32)C1 [Linsitinib] (partner 1 µM)
The procedure, abridged:
(§1)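 For relative viability, nuclei counts in treated wells were divided by those in vehicle wells. Lung cancer cell lines had been pin-tool dosed in 1536-well plates the day after seeding and cultured for 5 days, then fixed and stained in one step (final 0.05% Triton X-100, 1% formaldehyde, 1 ug/ml Hoechst) and imaged at 4×. Doses were one drug alone or a fixed anchor-drug dose plus five library-drug doses (not always all listed) in √10 steps, and values are duplicate-plate medians.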

Compound in the assay “Adavosertib + Pictilisib”: C=CCn1c(=O)c2cnc(Nc3ccc(N4CCN(C)CC4)cc3)nc2n1-c1cccc(C(C)(C)O)n1 [Adavosertib] + CS(=O)(=O)N1CCN(Cc2cc3nc(-c4cccc5[nH]ncc45)nc(N4CCOCC4)c3s2)CC1 [Pictilisib] (partner 1 µM)
The procedure, abridged:
as §1

Compound in the assay “Adavosertib + Tozasertib”: C=CCn1c(=O)c2cnc(Nc3ccc(N4CCN(C)CC4)cc3)nc2n1-c1cccc(C(C)(C)O)n1 [Adavosertib] + Cc1cc(Nc2cc(N3CCN(C)CC3)nc(Sc3ccc(NC(=O)C4CC4)cc3)n2)n[nH]1 [Tozasertib] (partner 0.1 µM)
An outline of the steps: as §1

Compound in the assay “Adavosertib + OSI-027”: C=CCn1c(=O)c2cnc(Nc3ccc(N4CCN(C)CC4)cc3)nc2n1-c1cccc(C(C)(C)O)n1 [Adavosertib] + COc1cccc2cc(-c3nc([C@H]4CC[C@H](C(=O)O)CC4)n4ncnc(N)c34)[nH]c12 [OSI-027] (partner 0.5 µM)
An outline of the steps:
as §1

Compound in the assay “Adavosertib + Crizotinib”: C=CCn1c(=O)c2cnc(Nc3ccc(N4CCN(C)CC4)cc3)nc2n1-c1cccc(C(C)(C)O)n1 [Adavosertib] + C[C@@H](Oc1cc(-c2cnn(C3CCNCC3)c2)cnc1N)c1c(Cl)ccc(F)c1Cl [Crizotinib] (partner 1 µM)
An outline of the steps:
as §1

On to A-427, for which the relative viability in the assay with Adavosertib + Linsitinib (first compound 0.01 µM) was found to be 1.09; with Adavosertib + Linsitinib (first compound 0.03162 µM), 1.05; in the assay with Adavosertib + Linsitinib (first compound 0.1 µM), 1.05; with Adavosertib + Linsitinib (first compound 0.3162 µM), 1.03; with Adavosertib + Pictilisib (first compound 0.01 µM), 0.735; in the assay with Adavosertib + Pictilisib (first compound 0.03162 µM), 0.653. Besides, the relative viability with Adavosertib + Pictilisib (first compound 0.1 µM) is 0.684; with Adavosertib + Pictilisib (first compound 0.3162 µM) it was 0.798; with Adavosertib + Tozasertib (first compound 0.01 µM) it was 0.175; with Adavosertib + Tozasertib (first compound 0.03162 µM), 0.186; with Adavosertib + Tozasertib (first compound 0.1 µM), 0.219; with Adavosertib + Tozasertib (first compound 0.3162 µM) it was 0.164. In addition, the relative viability in the assay with Adavosertib + OSI-027 (first compound 0.01 µM) is 0.472; in the assay with Adavosertib + OSI-027 (first compound 0.03162 µM) it was 0.411; in the assay with Adavosertib + OSI-027 (first compound 0.1 µM), 0.481; in the assay with Adavosertib + OSI-027 (first compound 0.3162 µM) it was 0.268; in the assay with Adavosertib + Crizotinib (first compound 0.01 µM), 0.972; with Adavosertib + Crizotinib (first compound 0.03162 µM) it was 0.931. Besides, the relative viability with Adavosertib + Crizotinib (first compound 0.1 µM) was found to be 1.02; in the assay with Adavosertib + Crizotinib (first compound 0.3162 µM), 0.962.
In the case of LOU-NH91, the relative viability with Adavosertib + Linsitinib (first compound 0.01 µM) worked out at 1; with Adavosertib + Linsitinib (first compound 0.03162 µM), 0.938; with Adavosertib + Linsitinib (first compound 0.1 µM), 0.964; with Adavosertib + Linsitinib (first compound 0.3162 µM) it was 0.871; in the assay with Adavosertib + Pictilisib (first compound 0.01 µM) it was 0.521; in the assay with Adavosertib + Pictilisib (first compound 0.03162 µM) it was 0.508. Further, the relative viability came to 0.544 with Adavosertib + Pictilisib (first compound 0.1 µM); 0.457 with Adavosertib + Pictilisib (first compound 0.3162 µM); 0.694 with Adavosertib + Tozasertib (first compound 0.01 µM); 0.69 in the assay with Adavosertib + Tozasertib (first compound 0.03162 µM); 0.735 with Adavosertib + Tozasertib (first compound 0.1 µM); 0.62 with Adavosertib + Tozasertib (first compound 0.3162 µM). Also, the relative viability was 0.65 with Adavosertib + OSI-027 (first compound 0.01 µM); 0.707 with Adavosertib + OSI-027 (first compound 0.03162 µM); 0.742 with Adavosertib + OSI-027 (first compound 0.1 µM); 0.677 with Adavosertib + OSI-027 (first compound 0.3162 µM); 0.709 in the assay with Adavosertib + Crizotinib (first compound 0.01 µM); 0.712 with Adavosertib + Crizotinib (first compound 0.03162 µM). Also, the relative viability with Adavosertib + Crizotinib (first compound 0.1 µM) was found to be 0.788; in the assay with Adavosertib + Crizotinib (first compound 0.3162 µM) it was 0.726.
On to RERF-LC-KJ, for which the relative viability with Adavosertib + Linsitinib (first compound 0.01 µM) was found to be 0.925; with Adavosertib + Linsitinib (first compound 0.03162 µM), 0.921; in the assay with Adavosertib + Linsitinib (first compound 0.1 µM), 0.848; with Adavosertib + Linsitinib (first compound 0.3162 µM), 0.796; in the assay with Adavosertib + Pictilisib (first compound 0.01 µM), 0.568; in the assay with Adavosertib + Pictilisib (first compound 0.03162 µM), 0.636. In addition, the relative viability in the assay with Adavosertib + Pictilisib (first compound 0.1 µM) was determined as 0.519; in the assay with Adavosertib + Pictilisib (first compound 0.3162 µM), 0.358; with Adavosertib + Tozasertib (first compound 0.01 µM), 0.555; in the assay with Adavosertib + Tozasertib (first compound 0.03162 µM) it was 0.627; with Adavosertib + Tozasertib (first compound 0.1 µM), 0.577; in the assay with Adavosertib + Tozasertib (first compound 0.3162 µM), 0.668. In addition, the relative viability in the assay with Adavosertib + OSI-027 (first compound 0.01 µM) stood at 0.561; with Adavosertib + OSI-027 (first compound 0.03162 µM), 0.512; in the assay with Adavosertib + OSI-027 (first compound 0.1 µM) it was 0.555; with Adavosertib + OSI-027 (first compound 0.3162 µM), 0.465; in the assay with Adavosertib + Crizotinib (first compound 0.01 µM) it was 0.795; in the assay with Adavosertib + Crizotinib (first compound 0.03162 µM), 0.815. For the same cell line, the relative viability in the assay with Adavosertib + Crizotinib (first compound 0.1 µM) amounted to 0.94; in the assay with Adavosertib + Crizotinib (first compound 0.3162 µM), 0.925.
For NCI-H1666, the relative viability with Adavosertib + Linsitinib (first compound 0.01 µM) came out at 0.763; in the assay with Adavosertib + Linsitinib (first compound 0.03162 µM), 1.14; with Adavosertib + Linsitinib (first compound 0.1 µM), 0.813; with Adavosertib + Linsitinib (first compound 0.3162 µM) it was 0.754; with Adavosertib + Pictilisib (first compound 0.01 µM) it was 0.5; in the assay with Adavosertib + Pictilisib (first compound 0.03162 µM) it was 0.324. For the same cell line, the relative viability with Adavosertib + Pictilisib (first compound 0.1 µM) worked out at 0.309; in the assay with Adavosertib + Pictilisib (first compound 0.3162 µM), 0.403; with Adavosertib + Tozasertib (first compound 0.01 µM) it was 0.642; with Adavosertib + Tozasertib (first compound 0.03162 µM) it was 0.568; in the assay with Adavosertib + Tozasertib (first compound 0.1 µM) it was 0.678; in the assay with Adavosertib + Tozasertib (first compound 0.3162 µM), 0.694. For the same cell line, the relative viability with Adavosertib + OSI-027 (first compound 0.01 µM) amounted to 0.797; in the assay with Adavosertib + OSI-027 (first compound 0.03162 µM), 0.851; with Adavosertib + OSI-027 (first compound 0.1 µM), 0.847; with Adavosertib + OSI-027 (first compound 0.3162 µM), 0.744; in the assay with Adavosertib + Crizotinib (first compound 0.01 µM), 0.926; in the assay with Adavosertib + Crizotinib (first compound 0.03162 µM), 0.963. The relative viability was 1.01 with Adavosertib + Crizotinib (first compound 0.1 µM) and 1.05 in the assay with Adavosertib + Crizotinib (first compound 0.3162 µM).
As for NCI-H322M, the relative viability with Adavosertib + Linsitinib (first compound 0.03162 µM) came to 0.789; with Adavosertib + Linsitinib (first compound 0.1 µM) it was 0.982; in the assay with Adavosertib + Linsitinib (first compound 0.3162 µM), 0.535; in the assay with Adavosertib + Pictilisib (first compound 0.03162 µM), 0.521; in the assay with Adavosertib + Pictilisib (first compound 0.1 µM) it was 0.504; with Adavosertib + Pictilisib (first compound 0.3162 µM) it was 0.421. The relative viability was 0.481 in the assay with Adavosertib + Tozasertib (first compound 0.01 µM); 0.453 in the assay with Adavosertib + Tozasertib (first compound 0.03162 µM); 0.436 in the assay with Adavosertib + Tozasertib (first compound 0.1 µM); 0.342 with Adavosertib + Tozasertib (first compound 0.3162 µM); 0.621 with Adavosertib + OSI-027 (first compound 0.01 µM); 0.547 in the assay with Adavosertib + OSI-027 (first compound 0.03162 µM). Further, the relative viability was 0.451 with Adavosertib + OSI-027 (first compound 0.1 µM); 0.312 with Adavosertib + OSI-027 (first compound 0.3162 µM); 0.982 with Adavosertib + Crizotinib (first compound 0.03162 µM); 0.834 with Adavosertib + Crizotinib (first compound 0.1 µM); 0.743 with Adavosertib + Crizotinib (first compound 0.3162 µM).
On to HCC-366, for which the relative viability in the assay with Adavosertib + Linsitinib (first compound 0.01 µM) turned out to be 0.62; with Adavosertib + Linsitinib (first compound 0.03162 µM), 0.802; with Adavosertib + Linsitinib (first compound 0.1 µM), 0.659; in the assay with Adavosertib + Linsitinib (first compound 0.3162 µM) it was 0.774; with Adavosertib + Pictilisib (first compound 0.01 µM) it was 0.155; with Adavosertib + Pictilisib (first compound 0.03162 µM), 0.143. Also, the relative viability with Adavosertib + Pictilisib (first compound 0.1 µM) stood at 0.217; in the assay with Adavosertib + Pictilisib (first compound 0.3162 µM) it was 0.172; in the assay with Adavosertib + Tozasertib (first compound 0.01 µM), 0.137; with Adavosertib + Tozasertib (first compound 0.03162 µM), 0.132; with Adavosertib + Tozasertib (first compound 0.1 µM), 0.145; with Adavosertib + Tozasertib (first compound 0.3162 µM), 0.169. Further, the relative viability with Adavosertib + OSI-027 (first compound 0.01 µM) amounted to 0.964; with Adavosertib + OSI-027 (first compound 0.03162 µM) it was 1.02; with Adavosertib + OSI-027 (first compound 0.1 µM), 0.897; with Adavosertib + OSI-027 (first compound 0.3162 µM) it was 0.889; in the assay with Adavosertib + Crizotinib (first compound 0.01 µM), 0.498; with Adavosertib + Crizotinib (first compound 0.03162 µM) it was 0.568. Further, the relative viability in the assay with Adavosertib + Crizotinib (first compound 0.1 µM) stood at 0.701; in the assay with Adavosertib + Crizotinib (first compound 0.3162 µM), 0.644.
